Active and inactive are the calls of the source. The rule behind the calls is not given here.

Assay [1] in a line: (§1) Cytotoxicity against human thyroid carcinoma cells assessed as mortality. In kind it is functional.
The species named for assay [2] is Homo sapiens. Described as §1. In kind it is functional.

On to `CC(=O)O[C@@H]1OC=C2[C@@H](OC(C)=O)C[C@H]3[C@]4(C)CC[C@H]5C(C)(C)CCC[C@]5(C)[C@H]4C[C@@H](O)[C@]3(C)[C@H]21` [HETERONEMIN], for which, in assay [1], the Activity came out at 30%. Take `CC1(C)CCC[C@]2(C)[C@H]3C[C@@H](O)[C@]4(C)[C@@H]5C(=CC[C@H]4[C@]3(C)CC[C@@H]12)CO[C@H]5O`: in assay [2], the outcome was inactive. As for `CC1(C)CCC[C@]2(C)[C@H]3CC(=O)[C@]4(C)[C@@H]5C(=CC[C@H]4[C@]3(C)CC[C@@H]12)CO[C@H]5O`, the Activity in assay [1] came to 25%.
